Experimental data published in patent US20080280945A1, “Crystalline forms of an HIV integrase inhibitor” (priority 2007, published 2008).
Values after ≈ are worked out from the molar mass of the structure shown.

What was measured:
[1] = test system: acute HIV infection of T-lymphoid cells; assay: inhibition of acute HIV infection of T-lymphoid cells (Vacca et al.); type: cell-based; conditions: n=6
[2] = thermal stability studies, 2 weeks storage, HPLC and XRPD; type: physicochemical; conditions: for Loss at 40° C., 75% RH / Loss at 60° C., ambient RH: 2 weeks storage, HPLC, NLQ = no loss greater than the limit of quantitation
Procedure: One set of samples of the amorphous, crystalline ethanolate, crystalline hydrate, and crystalline anhydrate forms of Isomer M were stored in a GMP stability chamber at 40° C. and 75% relative humidity (RH) and another set of analogous samples was stored at 60° C. and ambient RH in a Vacuum Oven, NAPCO (National Appliance Company) Model 5831. The samples were analyzed by XRPD and by HPLC before and after 2 weeks storage. HPLC conditions: column=Symmetry Shield RP18 15 cm×4.6 mm (Waters Corporation) with 3.5 μm particle size; temperature=25° C., UV detection at λ=220 nm; flow rate=1 mL/minute; injection volume=10 μL; mobile phase=initial conditions at 20% acetonitrile and 80% 0.1% phosphate buffer with a gradient from 20% acetonitrile to 35% acetonitrile in 8 minutes, hold at 35% acetonitrile for 5 minutes, from 35% to 60% acetonitrile in 13 minutes, from 60% to 90% acetonitrile in 10 minutes (run time: 36 minutes, equilibration time: 10 minutes).

[3] = solubility in water at 25° C. (ReactArray ST system, HPLC); type: physicochemical; conditions: for Solubility: equilibrated 24 h, average of last four hours, mean ± SE of 4 samples (amorphous: 1 sample); for Comment (form of excess solid): excess solid after solubility experiment
Procedure: The solubilities of crystalline ethanolate, crystalline hydrate and crystalline anhydrate were determined in water at 25° C. using a ReactArray ST™ system (Anachem, UK). Approximately 50 mg of material was transferred to a sample tube and 1.5 mL of water was added to it. The tubes were mounted on a temperature control block and the slurry was stirred at 400 rpm using a magnetic stir bar. The solution was equilibrated for 24 hours following which the concentration was monitored every hour for 6 hours.
HPLC conditions: column=C18 Bridge column (Waters Corporation), 4.6 mm×50 mm and 2.5 μm particle size; temperature=25° C., UV detection at λ=220 nm; flow rate=1 mL/minute; injection volume=5 μL; mobile phase=initial conditions at 20% acetonitrile and 80% 0.1% phosphate buffer with a gradient from 20% acetonitrile to 95% acetonitrile in 3 minutes, hold at 95% acetonitrile for 3 minutes, then from 95% to 20% acetonitrile in 0.1 minute (run time: 7 minutes), followed by 1 minute conditioning.

[4] = after 2 weeks at 60° C., ambient RH

| SMILES | IC95 ([1]; in the presence of 10% FBS) | IC95 ([1]; in the presence of 50% human serum) | Loss at 40° C., 75% RH [2] | Loss at 60° C., ambient RH [2] | XRPD (form change) [2, 4] | Solubility [3] | Comment (form of excess solid) [3] | XRPD (form change) ([2]; after 2 weeks at 40° C., 75% RH) |
| --- | --- | --- | --- | --- | --- | --- | --- | --- |
| CN1C[C@H](O)C(C)(C)Cn2c(c3c(c(O)c2=O)C(=O)N(Cc2ccc(F)c(Cl)c2)CC3)C1=O [Isomer M, M-(4R)-11-(3-chloro-4-fluorobenzyl)-4,9-dihydroxy-2,5,5-trimethyl-3,4,5,6,12,13-hexahydro-2H[1,4]diazocino[2,1-a]-2,6-naphthyridine-1,8,10(11H)-trione] | 15.6±0 1M | 51.7±16 | – | – | – | – | – | – |
| CN1C[C@H](O)C(C)(C)Cn2c(c3c(c(O)c2=O)C(=O)N(Cc2ccc(F)c(Cl)c2)CC3)C1=O [Crystalline ethanolate, M-(4R)-11-(3-chloro-4-fluorobenzyl)-4,9-dihydroxy-2,5,5-trimethyl-3,4,5,6,12,13-hexahydro-2H[1,4]diazocino[2,1-a]-2,6-naphthyridine-1,8,10(11H)-trione ethanolate] | – | – | 0.3 A % | 11.5 A % | no detectable change | 0.071 (±0.002) mg/mL | Excess solid converts to hydrate | – |
| CN1C[C@H](O)C(C)(C)Cn2c(c3c(c(O)c2=O)C(=O)N(Cc2ccc(F)c(Cl)c2)CC3)C1=O [Crystalline anhydrate, M-(4R)-11-(3-chloro-4-fluorobenzyl)-4,9-dihydroxy-2,5,5-trimethyl-3,4,5,6,12,13-hexahydro-2H[1,4]diazocino[2,1-a]-2,6-naphthyridine-1,8,10(11H)-trione anhydrate] | – | – | NLQ | NLQ | no detectable change | 0.124 (±0.010) mg/mL | Excess solid is anhydrate | no detectable change |
| CN1C[C@H](O)C(C)(C)Cn2c(c3c(c(O)c2=O)C(=O)N(Cc2ccc(F)c(Cl)c2)CC3)C1=O [Amorphous, M-(4R)-11-(3-chloro-4-fluorobenzyl)-4,9-dihydroxy-2,5,5-trimethyl-3,4,5,6,12,13-hexahydro-2H[1,4]diazocino[2,1-a]-2,6-naphthyridine-1,8,10(11H)-trione] | – | – | 8.9 A % | – | – | 0.83 mg/mL (≈ 1740 µM) | Excess solid is amorphous | – |
